Numbered stars: 1 amine (or outer) side, 2 acyl side, 3 side chain; on linkers, the order of the positions; unused ones are H or OH. Bridge positions count the residues as written; N and C are the ends. Square brackets hold non-standard residues; d marks the D form. Peptide text beside a SMILES is read from it. I, II: the chains in the order shown. Actinocin(9to1) = Cc1c2oc3c(C)ccc(C(=O)[*:1])c3nc-2c(C(=O)[*:2])c(N)c1=O; NMeV = CN[C@H](C(=O)O)C(C)C; Sar = CNCC(=O)O
What was measured:
A549 cells [1] = experiment: DNA fragmentation in A549 cells; assay type: cell-based, human; details: A549 transfected with scramble siRNA (siCTRL), Doxorubicin 24 hours
Experimental: (§1) FIGS. 13-14: Netrin-1 silencing triggers apoptosis in combination with Doxorubicin treatment. A549 cells were transfected as in (FIGS. 10-12), and treated with the indicated Doxorubicin concentrations for 24 hours. […] DoxoR, Doxorubicin.

[2] = tested on: UNC5A gene expression in A549 cells; experiment: Netrin-1 receptor gene expression in A549 cells: UNC5A; assay type: cell-based, human; details: A549 cells following Doxorubicin treatment
[3] = tested on: Netrin-1 gene expression in A549 lung cancer cell line; experiment: Netrin-1 gene expression by quantitative RT-PCR in A549 cells; assay type: cell-based, human; details: 24 hours
[4] = tested on: UNC5D gene expression in A549 cells; experiment: Netrin-1 receptor gene expression in A549 cells: UNC5D; assay type: cell-based, human; details: A549 cells following Doxorubicin treatment
[5] = tested on: DCC expression in panel of 15 cancer cell lines; details: drug at IC10, IC30, IC50 or ICMAX, 24 hours
[6] = tested on: UNC5C gene expression in A549 cells; experiment: Netrin-1 receptor gene expression in A549 cells: UNC5C; assay type: cell-based, human; details: A549 cells following Doxorubicin treatment
[7] = tested on: UNC5B gene expression in A549 cells; experiment: Netrin-1 receptor gene expression in A549 cells: UNC5B; assay type: cell-based, human
[8] = tested on: UNC5D expression in panel of 15 cancer cell lines; details: drug at IC10, IC30, IC50 or ICMAX, 24 hours
[9] = tested on: Netrin-1 protein in A549 cells; experiment: Netrin-1 protein levels by western blotting in A549 cells; assay type: cell-based, human; details: A549, 1 μM and 2 μM Doxorubicin, 48 hours, normalized to β-actin
Experimental: For immunoblot analysis, cells were lysed by sonication in modified RIPA buffer (50 mM Tris-HCl, pH7.5, 150 mM NaCl, 1% NP-40, 0.5% sodium deoxycholate, 0.1% SDS, 1 mM EDTA, protease inhibitor cocktail and 5 mM DTT) and incubated 1 h at 4° C. Cellular debris were pelletted by centrifugation (10.000 g 15′ at 4° C.) and protein extracts (200 μg per lane) were loaded onto 10% SDS-polyacrylamide gels and blotted onto PVDF sheets (Millipore Corporation, Billerica, Mass., U.S.A.). Filters were blocked with 10% non-fat dried milk and 5% BSA in PBS/0.1% Tween 20 (PBS-T) over-night and then incubated for 2 h with rabbit polyclonal α-netrin-1 (dilution 1:500, clone H104, Santa Cruz Biotechnology, Santa Cruz, Calif., USA) and mouse monoclonal β-actin (Santa Cruz Biotechnologies) antibodies. After three washes with PBS-T, filters were incubated with the appropriate HRP-conjugated secondary antibody (1:10000, Jackson ImmunoResearch, Suffolk, UK) for 1 h. Detection was performed using West Dura Chemiluminescence System (Pierce, Rockford, Ill., U.S.A.).

[10] = tested on: UNC5B expression in panel of 15 cancer cell lines; details: drug at IC10, IC30, IC50 or ICMAX, 24 hours
A549 cells [11] = experiment: Caspase-3 activity assay in A549 cells; assay type: cell-based, human; details: A549 transfected with scramble siRNA (siCTRL), Doxorubicin 24 hours
Experimental: as §1

[12] = tested on: Netrin-1 gene expression in H460 lung cancer cell line; experiment: Netrin-1 gene expression by quantitative RT-PCR in H460 cells; details: H460, 2 μM Doxorubicin, 24 hours, normalized with GAPDH, compared to not-treated cells
[13] = tested on: A549 cells engrafted in nude mice; experiment: A549 xenograft in athymic nude mice, tumor growth; assay type: in vivo; details: i.p. twice a week for two weeks, TRAP-netrin^UNC5A 20 mg/kg, Doxorubicin 2 mg/kg, alone or combined
Experimental: FIG. 22: Netrin-1 interfering potentiates Doxorubicin anti-cancer effect in a preclinical animal model. A549 cells were engrafted in seven-weeks old female athymic nude mice. Once tumors reached a 100 mm^3-volume, mice were treated intraperitoneally with TRAP-netrin^UNC5A (20 mg/kg), Doxorubicin (2 mg/kg) or with a combination of both drugs, twice a week for two weeks. As a control, mice were injected with PBS. Histogram represents tumor volume growth for each group as a function of days post-xenografts.
Seven-week-old (20-22 g body weight) female athymic nu/nu mice were obtained from Charles River animal facility. The mice were housed in sterilized filter-topped cages and maintained in a pathogen-free animal facility. A549 cells were implanted by s.c. injection of 10^7 cells in 200 μL of PBS into the right flank of the mice. Once tumors were established (V≈100 mm^3), mice were treated with netrin-1 interfering drugs and/or cytotoxic drugs for two weeks. Tumor sizes were measured with a caliper. The tumor volume was calculated with the formula v=0.5*(length*width^2). At the end of the treatment, tumors were harvested, weighted and were embedded in 7.5% gelatin—0.12M sucrose and sectioned into 20 μm slices.
We then assessed whether the in vitro effect seen above could be translated in vivo in a therapeutic perspective. […]

[14] = tested on: DCC gene expression in A549 cells; experiment: Netrin-1 receptor gene expression in A549 cells: DCC; assay type: cell-based, human; details: A549 cells following Doxorubicin treatment
A549 cells [15] = experiment: Cell death rate by ToxiLight bioluminescent cytotoxicity assay in A549 cells; details: 48 hours; for Potentiation of Doxorubicin-induced cell death (toxilight): A549, 2 μg/mL fusion protein plus Doxorubicin
Experimental: Cell death rate (FIG. 10), measured by toxilight kit as described in materials and methods section, and cell survival (FIG. 11), was evaluated 48 hours after treatment. Results were normalized to control, untreated cells.
A549 cells were transfected with scramble siRNA (siCTRL), netrin-1-specific siRNA (siNet), UNC5B-specific siRNA (siUnc5B) and with a combination of netrin-1 and UNC5B-targeting siRNA. 24 hours after transfection, cells were treated with the indicated Doxorubicin concentrations for 48 hours, and cell death rate was measured by toxilight and normalized to control, untreated cells.
FIGS. 16-17: A549 cells were treated for 48 hours with the indicated Doxorubicin concentrations in presence or not of 2 μg/mL TRAP-netrin^DCC (FIG. 16) and TRAP-netrin^Unc5A (FIG. 17). […] Results were normalized to untreated cells. *, P<0.05; **, P<0.01; ***, P<0.001.
Cell death was evaluated by means of different methods. For total cell death assays, 5*10^3 cells per well were grown in 96-well plate in serum-poor medium and treated with Doxorubicin. 48 hours later, cell death was evaluated using the bioluminescent cytotoxicity assay ToxiLight (Lonza, Basel, Switzerland), according to manufacturer's instruction. […] Cell survival was measured by MTS assay (CellTiter 96 AQueous One Solution Cell Proliferation Assay, Promega) in 96-well plates. MTS assay was performed according to the manufacturer's procedures on 3*10^3 cells grown in serum-poor medium for 16 hours and then treated for 48 hours with the indicated Doxorubicin concentrations in serum-free medium.

[16] = tested on: netrin-1 expressing tumor cells; experiment: Death of netrin-1 expressing tumor cells in vitro (not shown); assay type: cell-based; details: data not shown
MiaPacA cells = experiment: Cell survival by MTS assay in MiaPacA cells; assay type: cell-based, human; details: 48 hours
A549 cells [17] = experiment: Cell survival by MTS assay in A549 cells; details: 48 hours
Experimental: FIGS. 18-19: A549 cells were treated with PBS or 2 μg/mL TRAP-netrin^Unc5A, in presence of the indicated concentrations of 5-Fluorouracil (5-FU, FIG. 18) or Cisplatin (FIG. 19). 48 hours after co-treatment, cell survival was measured by MTS and normalized to untreated cells. *, P<0.05; **, P<0.01; ***, P<0.001.
Cell survival was measured by MTS assay (CellTiter 96 AQueous One Solution Cell Proliferation Assay, Promega) in 96-well plates.

COc1cccc2c1C(=O)c1c(O)c3c(c(O)c1C2=O)C[C@@](O)(C(=O)CO)C[C@@H]3O[C@H]1C[C@H](N)[C@H](O)[C@H](C)O1 [Doxorubicin] was tested, and the “Apoptosis (DNA fragmentation)” value (A549 cells [1]) was “failed to induce apoptosis”, the UNC5A gene expression [2] was “significantly up-regulated” and the “netrin-1 mRNA level increase” value ([3]; A549, 2 μM Doxorubicin, normalized with GAPDH, compared to not-treated cells) was 430 fold. The UNC5D gene expression [4] was “non-significant variations”, the “cell lines with up-regulation of DCC” value [5] was 87% and the UNC5C gene expression [6] was “non-significant variations”. The UNC5B gene expression ([7]; A549 cells following Doxorubicin treatment, result in words) was “significantly up-regulated”, the “UNC5B receptor level increase” value ([7]; A549 cells treated with Doxorubicin) was 44 folds and the “cell lines with up-regulation of UNC5D” value [8] was 67%. For the same molecule, the Netrin-1 protein levels [9] was “strongly accumulated”, the “cell lines with up-regulation of UNC5B” value [10] was 80% and the “Apoptosis (active caspase-3)” value (A549 cells [11]) was “failed to induce apoptosis”. The “netrin-1 mRNA level increase” value [12] was 300 fold, the Tumor growth inhibition [13] was “detectable but weak tumor growth inhibiting effect” and the DCC gene expression [14] was “significantly up-regulated”. The “Cell death rate and cell survival under Doxorubicin” value (A549 cells [15]; A549 scramble siRNA-transfected cells, increasing Doxorubicin concentrations) was “general resistance”.

CC(=O)O[C@H]1C(=O)[C@@]2(C)[C@H]([C@H](OC(=O)c3ccccc3)[C@]3(O)C[C@H](OC(=O)[C@H](O)[C@@H](NC(=O)c4ccccc4)c4ccccc4)C(C)=C1C3(C)C)[C@]1(OC(C)=O)CO[C@@H]1C[C@@H]2O [Taxol, paclitaxel] was tested, and the “cell lines with up-regulation of DCC” value [5] was 53%.

With O=c1[nH]cc(F)c(=O)[nH]1 [5FU, 5-Fluorouracil] the “cell lines with up-regulation of DCC” value [5] was 43%.

For Cc1c2oc3c(C)ccc(C(=O)N[C@@H]4C(=O)N[C@H](C(C)C)C(=O)N5CCC[C@H]5C(=O)N(C)CC(=O)N(C)[C@@H](C(C)C)C(=O)O[C@@H]4C)c3nc-2c(C(=O)N[C@@H]2C(=O)N[C@H](C(C)C)C(=O)N3CCC[C@H]3C(=O)N(C)CC(=O)N(C)[C@@H](C(C)C)C(=O)O[C@@H]2C)c(N)c1=O [Actinomycin D] (I: T[dV]P[Sar][NMeV] / II: T[dV]P[Sar][NMeV]; ester I:1-I:C, II:1-II:C; linker I:N-II:N via Actinocin(9to1)), the “Effect on Doxorubicin-mediated netrin-1 up-regulation” value ([3]; A549, 2 μM Doxorubicin plus Actinomycin D 100 μg/ml) was “fully prevents”.

In the case of “TRAP-netrin^UNC5A: two immunoglobin (Ig1-Ig2) domains of the UNC5A ectodomain fused to IgG1 Fc portion; SEQ ID NO: 1”, the “Death of netrin-1 expressing tumor cells in vitro” value [16] is reported as “trigger death of netrin-1 expressing tumor cells”, the “Cell death, co-treatment with 5FU (cell survival by MTS)” value (MiaPacA cells; 2 μg/mL fusion protein plus 5FU) is reported as “potentiated cell death” and the “Cell death, co-treatment with Doxorubicin (cell survival by MTS)” value (MiaPacA cells; 2 μg/mL fusion protein plus Doxorubicin) is reported as “potentiated cell death”. For the same molecule, the Tumor growth inhibition [13] was “detectable but weak tumor growth inhibiting effect”, the “Potentiation of Doxorubicin-induced cell death (toxilight)” value (A549 cells [15]) was “strongly potentiate” and the “Potentiating effect on cell death, co-treatment with 5FU (cell survival by MTS)” value (A549 cells [17]; A549, 2 μg/mL fusion protein plus 5FU) was “Comparable potentiating effect on cell death”. The “Potentiating effect on cell death, co-treatment with Cisplatin (cell survival by MTS)” value (A549 cells [17]; A549, 2 μg/mL fusion protein plus Cisplatin) was “Comparable potentiating effect on cell death”.

In the case of N.N.[Cl][Pt][Cl] [Cisplatin], the “cell lines with up-regulation of DCC” value [5] is reported as 36%.

B1: TRAP-netric^DCC: fifth fibronectin domain of DCC ectodomain fused to IgG1 Fc portion (protein)
chain: PPVGVQAVALTHDAVRVSWADNSVPKNQKTSEVRLYTVRWRTSFSASAKYKSEDTTSLSYTATGLKPNTMYEFSVMVTKNRRSSTWSMTAHATTYEA
modifications: left off: a dimerising Fc or GST
notes: fifth fibronectin domain of DCC ectodomain fused to IgG1 Fc portion
With B1 the “Death of netrin-1 expressing tumor cells in vitro” value [16] was “trigger death of netrin-1 expressing tumor cells” and the “Potentiation of Doxorubicin-induced cell death (toxilight)” value (A549 cells [15]) was “strongly potentiate”.
